Results taken from patent US7429679B2, “Sulphonic acid salt of sibutramine” (CJ Corporation, priority 2005, dated 2008).
≈ marks a conversion by molar mass, not a printed value. Entries after “also recorded” stand apart in the source; their conditions may differ. Where two headings read alike, the source gives them in different places.

Legend:
Format in all cases: physicochemical
[1] = Evaluation of light stability: exposure to fluorescence at 25° C., ICH light stability test chamber, content by HPLC; parameters: content (HPLC) in light stability test: reference not given here
Experimental: A light stability test was performed as follows. The sulphonic acid salts of sibutramine, prepared in Examples 1 to 5, and sibutramine hydrochloride monohydrate were exposed to fluorescence at 25° C. using a light stability test chamber suitable for the ICH guideline, for storage periods of 1, 2 and 4 weeks.

[2] = Evaluation of hygroscopicity: water content (K.F.) after exposure to humid conditions at 25° C.; details: for change in water content under humid conditions (in words): relative humidities of 10%, 75% and 90%, up to one week or longer
Experimental: The sulphonic acid salts of sibutramine, prepared in Examples 1 to 5, and sibutramine hydrochloride monohydrate were exposed to humid conditions (10%, 75% and 90% RH) at 25° C. for a period of three days or one week. Then, the water content (K.F. water %) of the samples was measured.

[3] = Evaluation of stability: stringent 60° C. heat treatment, content by HPLC; parameters: content (HPLC) upon 60° C. heat treatment: reference not given here
Experimental: The sulphonic acid salts of sibutramine, prepared in Examples 1 to 5, and sibutramine hydrochloride monohydrate were exposed to a stringent 60° C. heat treatment.
HPLC was performed under the following conditions.
Wavelength of UV detection: 225 nm
Column: octadecyl silica gel, C18 (4.6×150 mm, 5 μm)
Mobile phase: an aqueous solution of ammonium phosphate monohydride (0.05 M) (adjusted to pH 6 with phosphoric acid): acetonitrile=35:65

[4] = Evaluation of solubility in distilled water and aqueous solutions having various pH values
[5] = distilled water (DW) and buffer solutions at various pH values
[6] = 10% relative humidity, 25° C., 1 week
[7] = 10% relative humidity, 25° C., 3 days
[8] = 75% relative humidity, 25° C., 1 week
[9] = 75% relative humidity, 25° C., 3 days
[10] = 90% relative humidity, 25° C., 1 week
[11] = 90% relative humidity, 25° C., 3 days

CC(C)CC(N(C)C)C1(c2ccc(Cl)cc2)CCC1 (centres unmarked) [Besylate, sibutramine besylate]
content (HPLC) in light stability test ([1]; Initial): 1.000 | content (HPLC) in light stability test ([1]; fluorescence, 25° C., 1 wk): 1.000 | content (HPLC) in light stability test ([1]; fluorescence, 25° C., 2 wks): 0.999 | content (HPLC) in light stability test ([1]; fluorescence, 25° C., 4 wks): 0.999 | water content (K.F. water %) ([2]; 10% relative humidity, 25° C., 1 week, listed as Bensylate): 0.02% | water content (K.F. water %) ([2]; 10% relative humidity, 25° C., 3 days, listed as Bensylate): 0.02% | water content (K.F. water %) ([2]; 75% relative humidity, 25° C., 1 week, listed as Bensylate): 0.05% | water content (K.F. water %) ([2]; 75% relative humidity, 25° C., 3 days, listed as Bensylate): 0.02% | water content (K.F. water %) ([2]; 90% relative humidity, 25° C., 1 week, listed as Bensylate): 0.05% | water content (K.F. water %) ([2]; 90% relative humidity, 25° C., 3 days, listed as Bensylate): 0.05% | water content (K.F. water %) ([2]; Initial, listed as Bensylate): 0.02% | change in water content under humid conditions (in words) [2]: almost no change in water content | content (HPLC) upon 60° C. heat treatment ([3]; 60° C., 1 wk): 1.000 | content (HPLC) upon 60° C. heat treatment ([3]; 60° C., 2 wks): 0.999 | content (HPLC) upon 60° C. heat treatment ([3]; 60° C., 4 wks): 1.000 | content (HPLC) upon 60° C. heat treatment ([3]; Initial): 1.000 | solubility ([4]; DW (distilled water)): 19.18 mg/mL | solubility ([4]; aqueous buffer, distilled water (DW) and buffer solutions at various pH values, read-out: solubility against the solubility sufficient for preparing pharmaceutical formulations such as capsules): > 3 mg/mL | solubility compared to sibutramine hydrochloride monohydrate (in words) [4, 5]: slightly lower solubility than sibutramine hydrochloride monohydrate | solubility compared to sibutramine hydrochloride monohydrate (in words) ([4]; distilled water (DW) and buffer solutions at various pH values, listed as besylate): slightly low solubility compared to sibutramine hydrochloride monohydrate | solubility ([4]; pH 1.2): 15.18 mg/mL | solubility ([4]; pH 4.0): 8.51 mg/mL | solubility ([4]; pH 5.3): 5.72 mg/mL | solubility ([4]; pH 6.8): 21.86 mg/mL | solubility ([4]; pH 7.4): 7.01 mg/mL

CC(C)CC(N(C)C)C1(c2ccc(Cl)cc2)CCC1.CC1(C)C2CCC1(CS(=O)(=O)O)C(=O)C2 (centres unmarked) [Camsylate, sibutramine camsylate]
content (HPLC) in light stability test ([1]; Initial): 1.000 | content (HPLC) in light stability test ([1]; fluorescence, 25° C., 1 wk): 0.999 | content (HPLC) in light stability test ([1]; fluorescence, 25° C., 2 wks): 1.000 | content (HPLC) in light stability test ([1]; fluorescence, 25° C., 4 wks): 0.999 | water content (K.F. water %) [2, 6]: 0.08% | water content (K.F. water %) [2, 7]: 0.09% | water content (K.F. water %) [2, 8]: 0.06% | water content (K.F. water %) [2, 9]: 0.06% | water content (K.F. water %) [2, 10]: 0.12% | water content (K.F. water %) [2, 11]: 0.08% | water content (K.F. water %) ([2]; Initial): 0.09% | change in water content under humid conditions (in words) [2]: almost no change in water content | content (HPLC) upon 60° C. heat treatment ([3]; 60° C., 1 wk): 1.000 | content (HPLC) upon 60° C. heat treatment ([3]; 60° C., 2 wks): 0.999 | content (HPLC) upon 60° C. heat treatment ([3]; 60° C., 4 wks): 0.999 | content (HPLC) upon 60° C. heat treatment ([3]; Initial): 1.000 | solubility ([4]; DW (distilled water)): 23.67 mg/mL | solubility ([4]; pH 1.2): 16.18 mg/mL | solubility ([4]; pH 4.0): 16.75 mg/mL | solubility ([4]; pH 5.3): 7.45 mg/mL | solubility ([4]; pH 6.8): 29.83 mg/mL | solubility ([4]; pH 7.4): 13.97 mg/mL

CC(C)CC(N(C)C)C1(c2ccc(Cl)cc2)CCC1 (centres unmarked) [Edisylate, sibutramine edisylate]
content (HPLC) in light stability test ([1]; Initial): 1.000 | content (HPLC) in light stability test ([1]; fluorescence, 25° C., 1 wk): 1.000 | content (HPLC) in light stability test ([1]; fluorescence, 25° C., 2 wks): 0.999 | content (HPLC) in light stability test ([1]; fluorescence, 25° C., 4 wks): 1.000 | water content (K.F. water %) [2, 6]: 0.05% | water content (K.F. water %) [2, 7]: 0.06% | water content (K.F. water %) [2, 8]: 0.05% | water content (K.F. water %) [2, 9]: 0.04% | water content (K.F. water %) [2, 10]: 0.05% | water content (K.F. water %) [2, 11]: 0.04% | water content (K.F. water %) ([2]; Initial): 0.05% | change in water content under humid conditions (in words) [2]: almost no change in water content | content (HPLC) upon 60° C. heat treatment ([3]; 60° C., 1 wk): 0.999 | content (HPLC) upon 60° C. heat treatment ([3]; 60° C., 2 wks): 1.000 | content (HPLC) upon 60° C. heat treatment ([3]; 60° C., 4 wks): 0.999 | content (HPLC) upon 60° C. heat treatment ([3]; Initial): 1.000 | solubility ([4]; DW (distilled water)): 25.98 mg/mL (≈ 92.8 mM) | solubility compared to sibutramine hydrochloride monohydrate (in words) [4, 5]: slightly low solubility compared to sibutramine hydrochloride monohydrate; also recorded: slightly lower solubility than sibutramine hydrochloride monohydrate | solubility ([4]; pH 1.2): 10.57 mg/mL (≈ 37.8 mM) | solubility ([4]; pH 4.0): 9.78 mg/mL (≈ 34.9 mM) | solubility ([4]; pH 5.3): 5.68 mg/mL (≈ 20.3 mM) | solubility ([4]; pH 6.8): 19.44 mg/mL (≈ 69.5 mM) | solubility ([4]; pH 7.4): 8.04 mg/mL (≈ 28.7 mM)

CC(C)CC(N(C)C)C1(c2ccc(Cl)cc2)CCC1 (centres unmarked) [Esylate hemihydrate, sibutramine esylate hemihydrate]
content (HPLC) in light stability test ([1]; fluorescence, 25° C., 1 wk, hemihydrate): 0.999 | content (HPLC) in light stability test ([1]; fluorescence, 25° C., 2 wks, hemihydrate): 1.000 | content (HPLC) in light stability test ([1]; fluorescence, 25° C., 4 wks, hemihydrate): 0.999 | water content (K.F. water %) ([2]; 10% relative humidity, 25° C., 1 week, hemihydrate): 2.37% | water content (K.F. water %) ([2]; 10% relative humidity, 25° C., 3 days, hemihydrate): 2.35% | water content (K.F. water %) ([2]; 75% relative humidity, 25° C., 1 week, hemihydrate): 2.35% | water content (K.F. water %) ([2]; 75% relative humidity, 25° C., 3 days, hemihydrate): 2.29% | water content (K.F. water %) ([2]; 90% relative humidity, 25° C., 1 week, hemihydrate): 2.40% | water content (K.F. water %) ([2]; 90% relative humidity, 25° C., 3 days, hemihydrate): 2.44% | water content (K.F. water %) ([2]; Initial, hemihydrate): 2.37% | change in water content under humid conditions (in words) [2]: almost no change in water content | content (HPLC) upon 60° C. heat treatment ([3]; 60° C., 1 wk, hemihydrate): 1.000 | content (HPLC) upon 60° C. heat treatment ([3]; 60° C., 2 wks, hemihydrate): 0.999 | content (HPLC) upon 60° C. heat treatment ([3]; 60° C., 4 wks, hemihydrate): 0.999 | solubility ([4]; DW (distilled water), hemihydrate): 84.10 mg/mL | solubility compared to sibutramine hydrochloride monohydrate (in words) ([4]; distilled water (DW) and buffer solutions at various pH values, hemihydrate): excellent solubility compared to sibutramine hydrochloride monohydrate | solubility relative to sibutramine hydrochloride ([4]; distilled water and aqueous solutions of pH 1.2, pH 4.0, pH 5.3, pH 6.8 and pH 7.4): two times-higher than the solubility of sibutramine hydrochloride | solubility ([4]; pH 1.2, hemihydrate): 70.65 mg/mL | solubility ([4]; pH 4.0, hemihydrate): 26.42 mg/mL | solubility ([4]; pH 5.3, hemihydrate): 19.53 mg/mL | solubility ([4]; pH 6.8, hemihydrate): 69.42 mg/mL | solubility ([4]; pH 7.4, hemihydrate): 27.61 mg/mL
